The subject of series [1] is cytokine-stimulated human umbilical vein endothelial cells. Nature of the series: Cell Adhesion Assay: adherence of fluorescently-labelled leukocytes to endothelial cell monolayers. The class given is cell-based. Conditions: inhibition of cytokine-stimulated adhesion minus basal adhesion; calcein-AM labelled leukocytes on HUVEC monolayers. In short, it runs like this: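 HUVEC monolayers were stimulated with cytokine, and adhesion of calcein-AM-labelled leukocytes was quantified by fluorescence. Inhibition was calculated on cytokine-stimulated adhesion after subtracting basal adhesion of unstimulated cells.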

The test system of a further series is male Lewis rats. Nature of the series: Carrageenan Pleurisy Assay. It is filed as in vivo. To be noted: carrageenan 0.075 mg/rat, harvested four hours after carrageenan; for % Inhibition Cells: inflammatory cells (neutrophils) in pleural exudate vs vehicle control; for % Inhibition Exudate: pleural edema (exudate) vs vehicle control. The method, then: 2) Carrageenan Pleurisy Assay
The antiinflammatory activity of compounds of the invention was determined by the procedure of Vinegar, R, et al., Proc. Soc. Exp. Biol. Med., 1981, 168, 24-32, using male Lewis rats of 150±20 grams. The carrageenan dose was 0.075 mg/rat. Pleural exudate was harvested four hours after injection of carrageenan. Acute antiinflammatory activity was determined by inhibition of pleural edema and inflammatory cells (neutrophils) from a negative (vehicle) control group.

The structures appear in SMILES notation.

Usually IC50 stands for the concentration that gives 50% inhibition. In the case of `CCCn1c(=O)c2nc(-c3ccc(/C=C/C(=O)OCCOCCOCCOCCOCCOCCOCCOCCOCCOC)cc3)[nH]c2n(CC2CCCCC2)c1=O` [Example 44, (E)-4-((1-propyl-3-cyclohexylmethyl)-1,2,3,6-tetrahydro-2,6-dioxo-9H-purin-8-yl)cinnamic Acid Nonaethylene Glycol Methyl Ether Ester], the IC50 in series [1] was 20 ± 10 nM. In the series on male Lewis rats, the “% Inhibition Cells” value was found to be 44% and the “% Inhibition Exudate” value turned out to be 24%.
On the same counts, the results for `CCCn1c(=O)n(CC2CCCCC2)c(=O)c2nc(-c3ccc(/C=C/C(=O)OCCOCCOCCOCCOCCOCCOCCOCCOCCOC)cc3)[nH]c21` [Example 49, (E)-4-((1-cyclohexylmethyl-3-propyl)-1,2,3,6-tetrahydro-2,6-dioxo-9H-purin-8-yl)cinnamic Acid Nonaethylene Glycol Methyl Ether Ester] are 13 ± 9 nM, 28% and 53%.
For the molecule `COCCOCCOCCOCCOCCOCCOCCOCCOCCN(C)C(=O)/C=C/c1ccc(-c2nc3c(=O)n(CC4CCCCC4)c(=O)n(CC4CCCCC4)c3[nH]2)cc1` [Example 68, (E)-4-(1,3-Bis(cyclohexylmethyl)-1,2,3,6-tetrahydro-2,6-dioxo-9H-purin-8-yl) cinnamic Acid N-methyl Nonaethylene Glycol Methyl Ether Amide], the IC50 in series [1] is 72 ± 19 nM. Moreover, in the series on male Lewis rats, the “% Inhibition Cells” value is 92% and the “% Inhibition Exudate” value is recorded as 80%.
Taken in the same sequence, the figures for `CCCn1c(=O)c2nc(-c3ccc(/C=C/C(=O)NCCOCCOCCOCCOCCOCCOCCOCCOCCOC)cc3)[nH]c2n(CC2CCCCC2)c1=O` [Example 73, (E)-4-((1-propyl-3-cyclohexylmethyl)-1,2,3,6-tetrahydro-2,6-dioxo-9H-purin-8-yl)cinnamic Acid Nonaethylene Glycol Methyl Ether Amide] were greater than 1000 nM, 0% and 0%.
Taken in the same sequence, the figures for `COCCOCCOCCOCCOCCOCCOCCOCCOCCOC(=O)/C=C/c1ccc(-c2nc3c(=O)n(CC4CCCC4)c(=O)n(CC4CCCC4)c3[nH]2)cc1` [Example 36, (E)-4-(1,3-bis(cyclopentylmethyl)-1,2,3,6-tetrahydro-2,6-dioxo-9H-purin-8-yl)cinnamic Acid Nonaethylene Glycol Methyl Ether Ester] were 11 ± 8 nM, 47% and 38%.
Taken in the same sequence, the figures for `COCCOCCOCCOCCOCCOCCOCCOCCOCCOC(=O)/C=C/c1ccc(-c2nc3c(c(=O)n(CC4CCCCC4)c(=O)n3CC3CCCCC3)n2C)cc1` [Example 79, (E)-4-(1,3-Bis(cyclohexylmethyl)-2,3,6,7-tetrahydro-2,6-dioxo-7-methyl-1H-purin-8-yl)cinnamic Acid Nonaethylene Glycol Methyl Ether Ester] were 3 ± 1 nM, 55% and 7%.
`COCCOCCOCCOCCOCCOCCOCCOCCOCCOC(=O)/C=C/c1ccc(-c2nc3c(=O)n(Cc4ccccc4)c(=O)n(Cc4ccccc4)c3[nH]2)cc1` [Example 34]: the IC50 in series [1] was less than 0.1 nM. In the series on male Lewis rats, the “% Inhibition Cells” value amounted to 20% and the “% Inhibition Exudate” value is 59%.
Taken in the same sequence, the figures for `CCCn1c(=O)n(CC2CCCCC2)c(=O)c2nc(-c3ccc(/C=C/C(=O)NCCOCCOCCOCCOCCOCCOCCOCCOCCOC)cc3)[nH]c21` [Example 74, (E)-4-((1-cyclohexylmethyl-3-propyl)-1,2,3,6-tetrahydro-2,6-dioxo-9H-purin-8-yl)cinnamic Acid Nonaethylene Glycol Methyl Ether Amide] were 360 ± 160 nM, 85% and 70%.
In general, melting point refers to the temperature of the solid-liquid transition. Turning to `CC(C)Cn1c(=O)c2nc(-c3ccc(/C=C/C(=O)O)cc3)[nH]c2n(CC(C)C)c1=O` [Example 10, (E)-4-(1,3-bis(2-methylpropyl)-1,2,3,6-tetrahydro-2,6-dioxo-9H-purin-8-yl)cinnamic Acid], the melting point was greater than 300 °C.
Still for that read-out and setting: the same measure for `O=C(O)/C=C/c1ccc(-c2nc3c(=O)n(CC4CCCC4)c(=O)n(CC4CCCC4)c3[nH]2)cc1` [Example 3, (E)-4-(1,3-bis(cyclopentylmethyl)-1,2,3,6-tetrahydro-2,6-dioxo-9H-purin-8-yl)cinnamic Acid]: greater than 300 °C.
Still for that read-out and setting: for `O=C(O)/C=C/c1ccc(-c2nc3c(=O)n(CC4CCC4)c(=O)n(CC4CCC4)c3[nH]2)cc1` (hydrate or solvate) [Example 27, (E)-4-(1,3-bis(cyclobutylmethyl)-1,2,3,6-tetrahydro-2,6-dioxo-9H-purin-8-yl)cinnamic Acid] the value was greater than 300 °C.

Values taken from patent US6608069B1, “Phenyl xanthine derivatives” (SmithKline Beecham Corporation, priority 1998, dated 2003).
